Laboratory results as given in US7339065B2, “Design and synthesis of optimized ligands for PPAR” (Bethesda Pharmaceuticals, Inc., priority 2003, dated 2008).

Columns and labels:
PPARgamma = target: T1, PPARgamma (Homo sapiens, UniProt P37231); experiment: cell based transactivation assay, PPARgamma; conditions: activation, transactivation assay in vitro; read-out: EC50 for PPAR isoforms: PPARgamma
T1 construct: uses chimeric receptors where the PPAR LBD is fused to the DBD of the yeast transcription factor GAL4; expressed in transfected cells
T1 sequence (P37231 238-503 limits assumed): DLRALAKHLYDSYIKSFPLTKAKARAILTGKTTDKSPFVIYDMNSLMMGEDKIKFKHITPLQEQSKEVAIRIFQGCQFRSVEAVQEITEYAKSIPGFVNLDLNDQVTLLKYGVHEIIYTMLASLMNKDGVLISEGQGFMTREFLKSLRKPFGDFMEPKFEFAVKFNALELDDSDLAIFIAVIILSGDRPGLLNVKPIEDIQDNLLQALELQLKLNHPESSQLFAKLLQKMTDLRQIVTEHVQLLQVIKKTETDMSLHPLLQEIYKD
Procedure: (§1) The binding of agonist ligands to the receptor results in changes in the expression level of mRNAs encoded by PPAR target genes. This process, “transactivation”, is determined by cell-based assays which monitor this functional activity. Transactivation assays use cells that have been transfected with a vector expressing the receptor as well as a second vector containing a DNA direct repeat (DR-1) response element and a reporter gene, which encodes an enzyme such as chloramphenicol acetyltransferase, secreted placental alkaline phosphatase, or firefly luciferase. […]
(§2) The binding of agonist ligands to a nuclear receptor results in transactivation, i.e., changes in the expression level of mRNAs encoded by PPAR target genes. […] Activation of the receptor by agonist ligands leads to induction of reporter enzyme expression, which can be conveniently assayed using standard colorimetric or photometric plate readers. […]

PPARalpha = target: T2, PPARalpha (Homo sapiens, UniProt Q07869); experiment: cell based transactivation assay, PPARalpha; conditions: activation, transactivation assay in vitro; read-out: EC50 for PPAR isoforms: PPARalpha
T2 construct: uses chimeric receptors where the PPAR LBD is fused to the DBD of the yeast transcription factor GAL4; expressed in transfected cells
T2 sequence (Q07869 239-466 limits assumed): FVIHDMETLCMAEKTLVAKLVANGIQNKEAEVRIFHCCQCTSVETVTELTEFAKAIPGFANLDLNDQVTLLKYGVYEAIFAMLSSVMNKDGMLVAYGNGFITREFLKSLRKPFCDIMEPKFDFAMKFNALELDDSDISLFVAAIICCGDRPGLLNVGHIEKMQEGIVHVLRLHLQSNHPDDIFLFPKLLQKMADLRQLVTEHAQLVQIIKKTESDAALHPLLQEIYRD
Procedure: as §1, §2

PPARdelta = target: T3, PPARdelta (Homo sapiens, UniProt Q03181); experiment: cell based transactivation assay, PPARdelta; conditions: activation, transactivation assay in vitro; read-out: EC50 for PPAR isoforms: PPARdelta
T3 construct: uses chimeric receptors where the PPAR LBD is fused to the DBD of the yeast transcription factor GAL4; expressed in transfected cells
T3 sequence (Q03181 211-439 limits assumed): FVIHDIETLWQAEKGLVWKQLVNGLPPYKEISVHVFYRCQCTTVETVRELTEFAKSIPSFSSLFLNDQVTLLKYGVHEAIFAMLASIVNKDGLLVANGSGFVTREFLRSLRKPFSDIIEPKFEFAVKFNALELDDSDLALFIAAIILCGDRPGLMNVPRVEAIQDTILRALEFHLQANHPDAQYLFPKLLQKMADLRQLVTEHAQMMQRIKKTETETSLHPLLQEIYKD
Procedure: as §1, §2

[1] = test system: human psoriasis skin engrafted onto severe combined immunodeficient (SCID) mice; experiment: SCID mouse, human skin transplant model of psoriasis; assay type: in vivo
Description: Background: Human psoriasis skin engrafted onto severe combined immunodeficient (SCID) mice maintains its abnormal histologic characteristics in the absence of any treatment. Treatment of this SCID mouse, human skin transplant model of psoriasis with anti-psoriatic drugs will improve the histologic phenotype of the transplanted psoriatic skin. Thus, the SCID mouse with transplanted human psoriatic skin represents a useful model of psoriasis and can be used to test the therapeutic effects of antipsoriatic drugs (as described in the following references: 1) Nickoloff B J, Kunkel S L, Burdick […]. Severe combined immunodeficiency mouse and human psoriatic skin chimeras. Validation of a new animal model. Am J Pathol. 1995; 146:580-588. […] Archives of Dermatology 136:609-616, 2000). Methods: Keratome pieces of lesional psoriasis skin were transplanted onto immunodeficient mice (such as CB17 strain) as previously described (Nickoloff B J, Kunkel S L, Burdick […]. Am J Pathol. 1995; 146:580-588. Ellis […], Fisher […], Benson S C, Kurtz T W. Archives of Dermatology. 136:609-616, 2000). The transplanted tissue was allowed to heal for four weeks after which six animals were treated once daily for 4-8 weeks by topical application of BP107 to the psoriatic skin in concentrations sufficient to exert an antipsoriatic effect (concentrations ranging from 0.1 micromolar to 10 millimolar in appropriate amounts of vehicle such as DMSO, propylene glycol, or other vehicles familiar to those skilled in the art). At the end of the treatment period, the animals were sacrificed, tissue pieces were fixed in 10% buffered formalin, embedded in paraffin, sectioned, stained with hematoxylin and eosin, and evaluated histologically using techniques familiar to those skilled in the art. Animals topically treated with the corresponding vehicle without any BP107 were used as controls.

[2] = topical, once daily for 4-8 weeks, histology

EC50 (PPARgamma): < 0.001 µM | EC50 (PPARalpha): > 10 µM | EC50 (PPARdelta): > 10 µM
SMILES: CN(CCOc1ccc(CC2SC(=O)NC2=O)cc1)C(=O)CCCCC1C2CC3CC(C2)CC1C3 (stereo not drawn) [BP 107, 5-Adamantan-2-yl-pentanoic acid {2-[4-(2,4-dioxo-thiazolidin-5-ylmethyl)-phenoxy]-ethyl}-methyl-amide]
antipsoriatic effect compared to animals treated with troglitazone or rosiglitazone ([1]; topical BP107 vs weaker PPAR gamma activators): much better | granular layer [1, 2]: present in much of the epidermis | inflammatory response [1, 2]: reduced | pattern of epidermal differentiation [1, 2]: more normal pattern | overall skin thickness ([1]; topical, once daily for 4-8 weeks, histology, vs vehicle controls): reduced | anti-psoriatic effect compared to control animals ([1]; topical, once daily for 4-8 weeks, controls treated with vehicle): clearly evident
